Literature values in patent US20070136825A1, “Fusion proteins useful for detecting analytes” (priority 2001, published 2007).

Conditions: glucose; GGBP alone; Zukin et al.; read-out: Kd Binding protein, glucose

In the case of “GGBP: glucose/galactose binding protein (mglB, E. coli), SEQ ID NO:4”, the Kd is listed as 210 nM.
